According to PubChem BioAssay (NCI):
Values joined by “and” are separate entries in the source; they are usually repeats but may differ in a detail not shown here. Identical values can stand only once.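 Values below derive from 48-hour exposures of cells grown in 96-well plates, with endpoints linearly interpolated between the two concentrations bracketing the appropriate inhibition level. At the GI50, growth is halved. Definition used: TGI = concentration required for complete inhibition of growth.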

Legend:
Assay in all cases: NCI-60 cell line screen, 48 h
[1] = tested on: ACHN renal
[2] = tested on: CCRF-CEM leukemia
[3] = tested on: COLO 205 colon
[4] = tested on: HOP-62 NSCLC
[5] = tested on: LOX IMVI melanoma
[6] = tested on: NCI-H460 lung
[7] = tested on: SK-MEL-28 melanoma
[8] = tested on: SK-MEL-2 melanoma
[9] = tested on: SR leukemia
[10] = tested on: MDA-MB-231 breast

SMILES	TGI [1] [µM]	TGI [2] [µM]	TGI [3] [µM]	TGI [4] [µM]	TGI [5] [µM]	TGI [6] [µM]	TGI [7] [µM]	TGI [8]	TGI [9] [µM]	GI50 [1] [µM]	GI50 [2] [µM]	GI50 [3] [µM]	GI50 [4] [µM]	GI50 [10] [µM]	TGI [10] [µM]	GI50 [6] [µM]	GI50 [8]	GI50 [7] [µM]	GI50 [9] [µM]	GI50 [5] [µM]
CCc1ccccc1NC(=O)c1cccc([N+](=O)[O-])c1O	62	> 100	31.4	58	55.6	71	> 100	–	–	–	–	–	–	–	–	–	–	–	–	–
O=c1/c(=C/c2ccccc2[N+](=O)[O-])sc2nnc(-c3cccnc3)n12	> 100	> 100	–	> 100	> 100	> 100	> 100	> 100 µM	> 100	–	–	–	–	–	–	–	–	–	–	–
CCN(CC)Cc1cc(Nc2nc(NC3CCC(N(C)C)CC3)c3ccccc3n2)ccc1OC (configuration not stated)	24.8	16.8	2.87	20.9	–	17.6	5.17	7.52 µM	4.74	11	2.5	1.5	8.63	1.7	6.09	5.18	3.09 µM	2.41	2.13	–
Nc1ncc(Cc2ccc3c(c2)OCO3)c(N)n1	> 100	> 100	> 100	> 100	> 100	> 100	> 100	–	> 100	–	–	–	–	–	> 100	–	–	–	–	–
N#CNC(N)=NCc1ccccc1	> 100	> 100	> 100	> 100	> 100	> 100	> 100	> 100 µM	> 100	–	–	–	–	–	–	–	–	–	–	–
CCn1cc(C(=O)O)c(=O)c2cc(F)c(N3CCN(S(=O)(=O)c4cccc5ccccc45)CC3)cc21	> 100	> 100	3.91	39.2	–	> 100	> 100	8.72 µM	–	2.88	3.67	2.02	4.6	1.91	4.71	3.43	3.55 µM	6.09	–	–
COc1cc([C@@H]2c3cc4c(cc3[C@@H](NC(=O)c3ccc(C#N)cc3)C3COC(=O)[C@@H]32)OCO4)cc(OC)c1O (some centres not stated)	1.47	> 100	16.4	0.673	2.34	1.43	16.8	5.56 µM	–	–	–	–	–	–	–	–	–	–	–	–
O=C1NC(=O)c2c1n(Cc1ccccc1)c(=O)n2Cc1ccccc1	> 100	> 100	> 100	> 100	> 100	> 100	> 100	> 100 µM	–	–	–	–	–	–	–	–	–	–	–	–
CCCCCCCCCCCC[N+]1(CCCCCCCCCCCC)CCCC(C)C1 (configuration not stated)	2.27	–	–	–	1.39	–	1.73	–	–	0.984	–	–	–	–	–	–	–	0.487	–	0.348
CCCCCCCC(=O)OCC(COC(=O)C(C)(C)C)OC(=O)Cc1ccccc1 (configuration not stated)	> 100	> 100	> 100	> 100	> 100	> 100	> 100	–	–	–	–	–	–	–	–	–	–	–	–	–
O=C(Nc1ccc(N=C=S)cc1Cl)c1cc(Br)cc(Br)c1O	83.8	–	> 100	84.4	–	> 100	> 100	> 100 µM	62	–	–	–	–	–	46.2	–	–	–	–	–
CCOC(=O)c1nc(C)oc1C(F)(F)F	> 100	> 100	> 100	> 100	> 100	> 100	> 100	> 100 µM	> 100	–	–	–	–	–	–	–	–	–	–	–
O=c1cc(O)cc2n1CCC2	> 100	> 100	> 100	> 100	> 100	> 100	–	> 100 µM	–	–	–	–	–	–	–	–	–	–	–	–
COc1nc2c(c(O)c(C)c(=O)n2OC2OCC(OC(C)=O)C(OC(C)=O)C2OC(C)=O)c(=O)n1C (configuration not stated)	> 100	> 100	> 100	> 100	> 100	> 100	> 100	> 100 µM	> 100	–	–	–	–	–	–	–	–	–	–	–
COC(=O)C1C(=O)O[C@@H](c2ccc3c(c2)OCO3)C1C(=O)OC (mixture of isomers)	> 100	> 100	> 100	> 100	> 100	> 100	> 100	–	> 100	–	–	–	–	–	–	–	–	–	–	–
COc1cc(C)c(CC/C(C)=C/Cc2cc(O)ccc2O)c(C)c1C	> 25	> 25	> 25	–	–	> 25	> 25	> 25 µM	> 25	–	–	–	–	–	–	–	–	–	–	–
Cc1nc(N)nc(CCC(=O)Nc2cccc(C(F)(F)F)c2)c1-c1ccc(Cl)cc1	> 100	> 100	> 100	> 100	–	> 100	> 100	> 100 µM	56.8	–	–	–	–	–	–	–	–	–	–	–
Cc1ccc(S(=O)(=O)OCC/C(=C\[Si](C)(C)C)c2ccccc2)cc1	> 100	> 100	> 100	> 100	> 100	> 100	> 100	> 100 µM	> 100	–	–	–	–	–	–	–	–	–	–	–
N#CC(C(=O)C(=O)Nc1c(Cl)cccc1Cl)c1ccccc1 (configuration not stated)	> 100	> 100	> 100	> 100	–	> 100	> 100	> 100 µM	–	> 100	> 100	> 100	> 100	–	–	> 100	> 100 µM	> 100	–	> 100
COc1ccc2sc3c(NCCCN)nc4ccccc4c3c(=O)c2c1	3.07	3.66	3.71	3.46	–	3.55	3.28	3.98 µM	3.22	1.69	1.79	1.8	1.7	1.52	3	1.86	2 µM	1.8	0.832	–
OCc1cc2c(cn1)[nH]c1ccc(NCc3ccccc3)cc12	> 100	64.7	37	> 100	> 100	80.2	38.4	> 100 µM	–	–	–	–	–	–	–	–	–	–	–	–

SMILES	TGI [1] [µM]	TGI [2] [µM]	TGI [3] [µM]	TGI [4] [µM]	TGI [5] [µM]	TGI [6] [µM]	TGI [7] [µM]	TGI [8]	TGI [9] [µM]	GI50 [1] [µM]	GI50 [2] [µM]	GI50 [3] [µM]	GI50 [4] [µM]	GI50 [10] [µM]	TGI [10] [µM]	GI50 [6] [µM]	GI50 [8]	GI50 [7] [µM]	GI50 [9] [µM]	GI50 [5] [µM]
O=[N+]([O-])c1ccc(Cl)c2c([N+](=O)[O-])cccc12	–	> 10	> 10	> 10	> 10	–	> 10	> 10 µM	> 10	–	–	–	–	–	–	–	–	–	–	–
COc1ccc(OC)c(/C=C/c2nc(=S)n(-c3ccc(Cl)cc3)[nH]2)c1	> 100	> 100	68.4	> 100	> 100	> 100	> 100	> 100 µM	–	23.8	4.77	12.4	6.48	14.5	> 100	4.53	4.05 µM	11.1	–	5.02
O=C(NC12CC3CCC1CC(C3)C2)[C@@H]1CCCN1C(=O)OCc1ccccc1 (some centres not stated)	> 100	> 100	> 100	> 100	> 100	–	> 100	> 100 µM	> 100	–	–	–	–	–	–	–	–	–	–	–
COc1cc2oc(-c3ccc(O)cc3)cc(=O)c2c(O)c1C1OC(CO)C(O)C(O)C1O (configuration not stated)	> 100	> 100	> 100	> 100	> 100	> 100	> 100	> 100 µM	> 100	–	–	–	–	–	–	–	–	–	–	–
COC(=O)/C=C(/C(=O)OC)C1(C)c2cc(C(=O)OC)c(C(=O)OC)c(N)c2C(=N)N1c1ccccc1 (configuration not stated)	48.7	50.4	29.7	> 100	35	> 100	36.5	81.4 µM	58.5	–	–	–	–	–	–	–	–	–	–	–
C[C@]12Cc3cn[nH]c3C(=O)C1CC[C@@H]1C2CC[C@@]2(C)C1CC[C@@H]2O (some centres not stated)	> 100	> 100	> 100	> 100	> 100	> 100	> 100	> 100 µM	–	–	–	–	–	–	–	–	–	–	–	–
c1ccc2c(c1)SCCCS2	–	> 100	> 100	> 100	> 100	> 100	> 100	–	> 100	–	–	–	–	–	> 100	–	–	–	–	–
N#C/C(=C\c1cc(OCc2ccccc2)c(OCc2ccccc2)cn1)C(N)=O	> 100	> 100	> 100	> 100	> 100	> 100	> 100	> 100 µM	–	–	–	–	–	–	–	–	–	–	–	–
O=[N+]([O-])c1ccccc1C1SCc2nc3ccccc3n21 (configuration not stated)	> 100	> 100	–	> 100	> 100	> 100	> 100	> 100 µM	> 100	–	–	–	–	–	–	–	–	–	–	–
O=C(NCCNCCO)c1ccc2c(c1)oc1cc3ccccc3c(=O)n12	> 50	–	47.3	> 50	40.6	> 50	> 50	44.7 µM	> 50	19	–	18.9	> 50	29.8	> 50	25.4	12.8 µM	> 50	24.8	17.4
COC(=O)C1C(C(=O)OC)C2C(=O)C3C(C(=O)OC)C(C(=O)OC)C3C(=O)C12 (configuration not stated)	> 100	> 100	> 100	> 100	> 100	> 100	> 100	> 100 µM	> 100	–	–	–	–	–	–	–	–	–	–	–
COc1ccc(OC)c(NCC(=O)n2nc(/C=C\c3ccc(O)c(OC)c3)cc2/C=C\c2ccc(O)c(OC)c2)c1	–	> 100	4.27	13	–	9.84	12.3	7.04 µM	–	–	0.474	2.11	3.03	3.02	> 100	2.59	2.3 µM	2.66	–	–
COC(=O)OC1C(O[C@H]2C[C@H]3[C@@H]4CC=C5C[C@@H](O)CC[C@]5(C)[C@H]4CC[C@]3(C)[C@H]2[C@H](C)C(=O)CCC(C)C)OCC(O)C1OC1OCC(O)C(O)C1OC(=O)c1ccc(OC)cc1 (some centres not stated)	> 27.5	–	0.253	0.673	–	0.332	0.0161	0.0855 µM	–	0.0721	–	0.034	0.0102	0.082	4.46	0.00957	0.00538 µM	0.0043	–	–
COc1cc(Nc2cnc3ccc(C(F)(F)F)cc3n2)cc(OC)c1OC	> 100	> 100	> 100	> 100	23.2	> 100	> 100	> 100 µM	> 100	–	–	–	–	–	–	–	–	–	–	–
CC1=NN(C(=O)Cc2ccccc2)C(=O)/C1=C\c1ccc(O)cc1	> 100	> 100	> 100	> 100	> 100	> 100	> 100	> 100 µM	–	–	–	–	–	–	–	–	–	–	–	–
COC(=O)CCC(NC(=S)N/N=C/c1cccs1)C(=O)OC (configuration not stated)	> 100	–	> 100	> 100	> 100	> 100	> 100	> 100 µM	> 100	–	–	–	–	–	–	–	–	–	–	–
N#Cc1nc2c(S(=O)(=O)c3ccc(Cl)cc3)c(N)n(Nc3cccc(Cl)c3)c2nc1C#N	–	–	–	–	–	> 100	0.011	0.387 µM and 0.0857 µM	–	0.0277	0.0101	–	0.109	0.0178	0.0869	0.0704	0.105 µM and 0.0126 µM	0.00349	–	0.0301
O=C1[C@@H]2C(c3c(Cl)cccc3Cl)=NO[C@@H]2C(=O)N1c1ccc(Cc2ccc(N3C(=O)[C@H]4C(c5c(Cl)cccc5Cl)=NO[C@H]4C3=O)cc2)cc1	> 100	> 100	> 100	> 100	> 100	> 100	> 100	> 100 µM	–	–	–	–	–	–	–	–	–	–	–	–
COc1ccc(CNc2cnc3ccc(N)cc3n2)cc1	> 100	> 100	34.6	> 100	> 100	> 100	> 100	> 100 µM	–	–	–	–	–	–	–	–	–	–	–	–
Cc1cc([N+](=O)[O-])c(C)c2c1[nH]c1ccc(Cl)cc12	> 100	> 100	> 100	> 100	> 100	> 100	> 100	> 100 µM	> 100	–	–	–	–	–	–	–	–	–	–	–
